Here are results for 29 molecules from PubChem BioAssay (NCI).

“And” between values parts separate entries of the source, which are not always exact repeats. Identical values can stand only once.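 Growth conditions: 96-well plates. Treatment: test compound, 48 hours, 5 concentrations. Analysis: linear interpolation between bracketing concentrations; unreached endpoints set to highest concentration. GI50: concentration for 50% inhibition of growth. TGI marks complete inhibition of growth.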

Assay in all cases: NCI-60 cell line screen, 48 h
In test [1] the test system is SNB-19 CNS.
Test [2] concerns HOP-18 NSCLC.
Test [3] concerns IGROV1 ovarian.
The test system of test [4] is M19-MEL melanoma.
Test [5] relates to DMS 273 small cell lung.
Test [6] deals with KM20L2 colon.
For test [7], the system named is OVCAR-5 ovarian.
The test system of test [8] is SNB-78 CNS.
The test system of test [9] is DMS 114 small cell lung.
The test system of test [10] is A498 renal.
The subject of test [11] is MDA-MB-231 breast.
Test [12] has as its system T-47D breast.

Consider `COC(=O)CCC(NC(=S)N/N=C/c1ccco1)C(=O)OC` (stereo not given), for which the TGI in test [1], in [2], in test [3], in test [4], in test [5] and in [6] was more than 100 µM throughout. Besides, the TGI in test [7], in test [8], in test [9] and in [10] was more than 100 µM each time.
With `Cc1[nH]c2ccccc2c1C1Cc2ccccc2N1C(=O)/C=C/C(=O)O` (stereo not given), the TGI in [1], in test [3], in test [4], in [5], in test [6] and in test [7] was more than 100 µM in each case. The TGI in test [8], in [9] and in [10] was more than 100 µM in each case.
As to `COc1ccc(C(=O)C(c2ccc(OC)cc2)C2(O)C(=O)Nc3c2ccc(Cl)c3C)cc1` (stereo not given), the TGI in [1], in test [2], in test [3], in [4], in test [6] and in test [7] was more than 100 µM in each case. For the same molecule, the TGI in test [8], in test [9] and in [10] was more than 100 µM in each case.
As to `N#CC(c1nc2ccccc2nc1Cl)S(=O)(=O)c1ccccc1` (stereo not given), the TGI is more than 100 µM in [1]; more than 100 µM in test [4]; more than 100 µM in [5]; more than 100 µM in test [6]; more than 100 µM in test [7]; 94.4 µM in [8]. Also, the TGI in [9] and in [10] was more than 100 µM in each case.
With `C1=C2/CC[C@H](Sc3ccccc3)[C@H]2C2(CCCCC/1)OCCO2`, the TGI was more than 100 µM in test [1]; more than 100 µM in test [2]; more than 100 µM in [3]; 67 µM in test [4]; more than 100 µM in test [5]; 45.3 µM in test [6]. For the same molecule, the TGI is 79.6 µM in test [7] and more than 100 µM in test [8].
With `Cc1ccccc1NC(=O)C(=O)CC(=O)c1c(C)n([O-])c2ccccc2[n+]1=O`, the TGI in test [1], in [2], in [3], in test [4], in test [5] and in test [6] was more than 100 µM in each case. Moreover, the TGI in test [7], in test [8], in test [9] and in test [10] was more than 100 µM in each case.
As for `CCc1cccc(C)c1NC(=O)C(=O)Cc1nc2ccccc2s1`, the TGI in test [1] was more than 100 µM; in [2], more than 100 µM; in test [3], 20.8 µM; in [4] it was more than 100 µM; in test [5] it was more than 100 µM; in [6] it was more than 100 µM. The TGI in test [8], in test [9] and in test [10] was more than 100 µM throughout.
Turning to `CCOC(=O)NC(=O)c1cn(CCCCCCOC(=O)NCCCCCCNC(=O)OCCCCCCn2cc(C(=O)NC(=O)OCC)c(=O)[nH]c2=O)c(=O)[nH]c1=O`, the TGI in test [1], in test [2], in test [3], in [4], in test [5] and in test [6] was more than 100 µM throughout. Moreover, the TGI in test [9] and in test [10] was more than 100 µM each time.
As for `O=C(c1ccccc1)c1cccc(C(=O)c2ccccc2)c1`, the TGI in test [1], in [2], in test [3], in test [4], in test [5] and in test [8] was more than 100 µM in each case. The TGI in [9] and in test [10] was more than 100 µM in each case.
For the molecule `Cc1ccc(N2C(=O)C3C=CC(n4[nH]c(=O)n(Cc5ccccc5)c4=O)CC3C2=O)cc1` (stereo not given), the TGI in test [1], in test [2], in [3], in [4], in test [5] and in test [6] was more than 100 µM throughout. In addition, the TGI in [7], in test [8], in test [9] and in [10] was more than 100 µM throughout.
Take `CCOC(=O)C(=Cc1cccnc1C)C(=O)OCC`: the TGI was found to be 23.6 µM in test [1]; 21.7 µM in [2]; 25 µM in test [3]; 22.3 µM in test [4]; 14 µM in [5]; 10.7 µM in [6]. Moreover, the TGI in test [7] was 31.8 µM; in test [9] it was 31.3 µM; in test [10] it was 31 µM.
Consider `COc1cc(C2C(Cl)C(=O)N2NC(=O)c2ccc(N)cc2)ccc1O` (stereo not given), for which the TGI in test [1] is 78.9 µM; in test [3] it was more than 100 µM; in test [4], more than 100 µM; in test [5], more than 100 µM; in [6], more than 100 µM; in test [7], more than 100 µM. Also, the TGI in test [8] and in test [10] was more than 100 µM throughout.
As for `Cc1cccc(C(C)C)c1NC(=O)CC1C(=O)Nc2ccccc2S1(=O)=O` (stereo not given), the TGI was more than 68 µM in [1]; 70.8 µM in [2]; more than 51 µM in test [3]; more than 57.4 µM in test [4]; 20.5 µM in [5]; 51.5 µM in [6]. Moreover, the TGI in test [7] was more than 73.1 µM; in [8] it was more than 79.3 µM; in [9] it was 45.5 µM; in test [10], more than 54.2 µM.
As for `O=c1c2ccccc2nc(-c2ccccc2)n1NC1OC(CO)C(O)C(O)C1O` (stereo not given), the TGI in test [1], in test [2], in [3], in [4], in test [5] and in [6] was more than 100 µM in each case. Further, the TGI in [7], in test [8], in test [9] and in test [10] was more than 100 µM throughout.
Consider `COc1ccc(OC)c2c1C(=O)C1CC1(Br)C2=O` (stereo not given), for which the TGI in [1], in test [3], in [4], in test [5], in test [6] and in test [7] was more than 100 µM each time. Moreover, the TGI in test [9] and in test [10] was more than 100 µM in each case.
`COc1ccc(/C=N/N=C(\N)NO)c(OC)c1`: the TGI is more than 100 µM in [1]; more than 100 µM in [2]; more than 100 µM in test [3]; more than 100 µM in [4]; 36.1 µM in test [7]; more than 100 µM in test [8]. Besides, the TGI in test [9] is more than 100 µM.
In the case of `Cc1ccc(Nc2nc(C)c(C(/C=C/c3ccc(/C=C/C(=N/NC(=O)C[n+]4ccccc4)c4sc(Nc5ccc(C)cc5[N+](=O)[O-])nc4C)cc3)=N\NC(=O)C[n+]3ccccc3)s2)c([N+](=O)[O-])c1`, the TGI in test [1] was more than 100 µM; in [2], 68 µM; in [3], more than 100 µM; in test [4], more than 100 µM; in test [5] it was more than 100 µM; in [6], more than 100 µM. Besides, the TGI in test [7], in test [8] and in test [9] was more than 100 µM each time.
For `COC(=O)c1cc(Cl)ccc1NC(=O)c1ccc([N+](=O)[O-])cc1`, the TGI was 57.8 µM in test [3]; more than 100 µM in [4]; 77.3 µM in test [5]; 76.8 µM in test [6]; more than 100 µM in test [7]; more than 100 µM in [8]. Also, the TGI in test [9] was more than 100 µM; in test [10], 34.5 µM.
With `Cc1ccc(C)c(NC(=O)CC/C(=N\NC(=O)c2c(O)ccc3ccccc23)C(C)C(=O)c2ccc(O)cc2)c1` (stereo not given), the TGI in [1] was more than 100 µM; in test [2], 83.8 µM; in test [3], more than 100 µM; in test [5] it was more than 100 µM; in test [6], 30 µM; in test [7], more than 100 µM. Besides, the TGI in test [8] and in test [10] was more than 100 µM throughout.
In the case of `O=C1CC(S(=O)(=O)O)C=C1Nc1cccc(Cl)c1` (stereo not given), the TGI in test [1], in test [2], in [3], in test [4], in test [5] and in test [6] was more than 100 µM in each case. Besides, the TGI in test [7], in test [8] and in test [10] was more than 100 µM each time.
As for `[N-]=[N+]=NC(CI)c1cn([C@H]2C[C@H](O)[C@@H](CO)O2)c(=O)[nH]c1=O` (stereo not given in full), the TGI in test [1], in [2], in test [3], in test [4], in [5] and in test [6] was more than 100 µM in each case. The TGI in test [7], in [8] and in test [9] was more than 100 µM each time.
Consider `O=CN/C=C/c1ccc(O)c(O)c1`, for which the TGI in test [1], in test [3], in test [4], in test [5], in [6] and in [7] was more than 100 µM throughout. For the same molecule, the TGI in test [8], in test [9] and in test [10] was more than 100 µM each time.
Take `COC(=O)C1=C(c2cc(OC)c(OC)c(OC)c2)OC(c2ccc(OC)c(OC)c2)C1` (stereo not given): the TGI in test [2], in test [3], in [4], in test [5], in test [6] and in [7] was more than 100 µM in each case. Also, the TGI in [9] is 81.3 µM; in test [10], 69.3 µM.
As for `COc1ccc(C2=NN(c3ccccc3)C[N+](c3ccc(OC)cc3)=N2)cc1`, the TGI in test [1] was 92.1 µM; in test [3], more than 100 µM; in test [4], more than 100 µM; in test [5], 66.1 µM; in test [6], more than 100 µM; in [7] it was 70 µM. Also, the TGI in test [8] is 80.5 µM; in test [9] it was 64 µM; in test [10], more than 100 µM.
`CC(=O)C1C(=O)C(=O)N(c2ccccc2C(C)C)C1=O` (stereo not given): the TGI in test [1], in test [2], in test [3], in [4], in test [6] and in test [7] was more than 100 µM in each case. In addition, the TGI in test [8] and in test [10] was more than 100 µM throughout.
`CN1c2ccccc2N(C)C23N(C)c4ccccc4N(C)C12N(C)c1ccccc1N3C` (stereo not given): the TGI in test [1], in [3], in [4], in test [5], in test [6] and in [7] was more than 100 µM throughout. In addition, the TGI in test [9] and in test [10] was more than 100 µM throughout.
Consider `C=C1c2[nH]c3c([N+](=O)[O-])c(OC)ccc3c2CCN1C(C)=O`, for which the TGI in [1], in [3], in test [5], in [6], in test [7] and in [8] was more than 100 µM throughout. In addition, the TGI in test [9] and in test [10] was more than 100 µM throughout.
For the molecule `Cc1cc(Cl)ccc1NC(=O)CC/C(CC(=O)C(C)C)=N\NC(=O)C[n+]1ccccc1`, the TGI in test [1], in [2], in test [3], in test [5], in [6] and in test [7] was more than 100 µM throughout. For the same molecule, the TGI in test [8], in [9] and in test [10] was more than 100 µM in each case.
As to `COc1ccc(/C=C\c2cc(OC)c(OC)c(OC)c2)cc1OC`, the values for the GI50 in [1], in test [3] and in test [7] were 320 nM, 53.7 nM and 324 nM, respectively. The TGI is 40.4 µM and 83.6 µM in [1]; more than 100 µM in test [11]; more than 100 µM in [12]; 40.4 µM in test [2]; 40.4 µM and 21.5 µM in test [3]; 0.141 µM in test [6]. Further, the TGI in test [7] was 40.4 µM and > 100 µM; in [8], 40.4 µM; in [10] it was 40.4 µM.
